The results in this text go back to publication PMC6211260 (Journal of Enzyme Inhibition and Medicinal Chemistry, 2018).

As usually defined, the melting point is the temperature, or range, at which the solid turns liquid. As usually defined, the IC50 is the concentration that gives 50% inhibition.

Each structure is given as a SMILES string.

Series [1] in a line: Plasma stability. In kind it is in vitro ADME. Conditions: 37 °C, 10 µM. As to the method: About 10 µM of compound 2l was mixed with human plasma and rat plasma and the mixture was shaked at 37 °C for 30 min and 120 min. After each time interval, acetonitrile was added and the mixture was centrifugated (14000 rpm, 4 °C). The supernatant was injected into the LC-MS to detect the remaining amount of compound 2l.

The test system of series [2] is prostate cancer cell lines. As to the kind of experiment: NCI five-dose testing, subpanel mean. In kind it is cell-based. Conditions: subpanel VIII: prostate cancer. As to the method: (§1) Screening against the cancer cell lines was carried out at the National Cancer Institute (NCI, Bethesda, Maryland, USA) applying the standard protocol of the NCI[22].
The subject of series [3] is melanoma cell lines. Nature of the series: NCI five-dose testing, subpanel mean. In kind it is cell-based. Conditions: subpanel V: melanoma. As to the method: as §1
Series [4] deals with Leukaemia cell lines. Nature of the series: NCI five-dose testing, subpanel mean. In kind it is cell-based. To be noted: subpanel I: Leukaemia. The protocol: as §1
Series [5] has as its system non-small cell lung cancer cell lines. Nature of the series: NCI five-dose testing, subpanel mean. In kind it is cell-based. To be noted: subpanel II: non-small cell lung cancer. As to the method:
as §1

For series [6], the system named is colon cancer cell lines. As to the kind of experiment: NCI five-dose testing, subpanel mean. In kind it is cell-based. Conditions: subpanel III: colon cancer. As to the method: as §1
In series [7] the test system is breast cancer cell lines. As to the kind of experiment: NCI five-dose testing, subpanel mean. In kind it is cell-based. To be noted: subpanel IX: breast cancer. As to the method: as §1
In series [8] the test system is renal cancer cell lines. As to the kind of experiment: NCI five-dose testing, subpanel mean. In kind it is cell-based. Conditions: subpanel VII: renal cancer. As to the method: as §1
Series [9] relates to ovarian cancer cell lines. As to the kind of experiment: NCI five-dose testing, subpanel mean. To be noted: subpanel VI: ovarian cancer. In kind it is cell-based. As to the method:
as §1

Series [10] has as its system CNS cancer cell lines. As to the kind of experiment: NCI five-dose testing, subpanel mean. In kind it is cell-based. Conditions: subpanel IV: CNS cancer. The protocol:
as §1

Series [11] relates to U251 CNS cancer cell line. Nature of the series: NCI five-dose testing. In kind it is cell-based. To be noted: Homo sapiens, U-251. The protocol: as §1
Series [12] concerns HT-29 colon cancer cell line. As to the kind of experiment: NCI five-dose testing. To be noted: Homo sapiens, HT-29. In kind it is cell-based. The protocol:
as §1

The subject of series [13] is HOP-92 non-small cell lung cancer cell line. Nature of the series: NCI five-dose testing. To be noted: Homo sapiens, HOP-92. In kind it is cell-based. The protocol: as §1
Series [14] relates to PC-3 prostate cancer cell line. As to the kind of experiment: NCI five-dose testing. Conditions: Homo sapiens, PC-3. In kind it is cell-based. As to the method:
as §1

The subject of series [15] is SK-MEL-5 melanoma cell line. Nature of the series: NCI five-dose testing. Conditions: Homo sapiens, SK-MEL-5. In kind it is cell-based. The protocol: as §1
In series [16] the test system is MDA-MB-468 breast cancer cell line. Nature of the series: NCI five-dose testing. In kind it is cell-based. To be noted: Homo sapiens, MDA-MB-468. The protocol:
as §1

In the case of `O=S(=O)(NCCNc1cc(-c2cn(-c3ccccc3)nc2-c2cccc(O)c2)ccn1)c1cccc2ccccc12` [Compound 1q, N-(2-((4-(3-(3-Hydroxyphenyl)-1-phenyl-1H-pyrazol-4-yl)pyridin-2-yl)amino)ethyl)naphthalene-1-sulfonamide], the melting point lay in the range of 146 to 148 °C.
Same read-out and setting: as for `COc1cccc(-c2nn(-c3ccccc3)cc2-c2ccnc(NCCCNS(=O)(=O)c3ccc(C)cc3)c2)c1` [Compound 2f, N-(3-((4-(3-(3-Methoxyphenyl)-1-phenyl-1H-pyrazol-4-yl)pyridin-2-yl)amino)propyl)-4-methylbenzenesulfonamide], the figure is 94 to 96 °C; as for `Cc1ccc(S(=O)(=O)NCCNc2cc(-c3cn(-c4ccccc4)nc3-c3cccc(O)c3)ccn2)cc1` [Compound 1n, N-(2-((4-(3-(3-Hydroxyphenyl)-1-phenyl-1H-pyrazol-4-yl)pyridin-2-yl)amino)ethyl)-4-methylbenzenesulfonamide], 114 to 116 °C; as for `COc1cccc(-c2nn(-c3ccccc3)cc2-c2ccnc(NCCNS(=O)(=O)c3cccc(F)c3)c2)c1` [Compound 1h, 3-Fluoro-N-(2-((4-(3-(3-methoxyphenyl)-1-phenyl-1H-pyrazol-4-yl)pyridin-2-yl)amino)ethyl)benzenesulfonamide], 118 to 120 °C.
Take `COc1ccc([C@@H]2Sc3ccccc3N(CCN(C)C)C(=O)[C@@H]2OC(C)=O)cc1` [Diltiazem]: the “Plasma stability, remaining unchanged” value in series [1] (Human plasma, 30 min) is recorded as 91.5%; in series [1] (Human plasma, 30 min, listed as diltiazem), 91.5%; in series [1] (Human plasma, 120 min), 89.3%; in series [1] (Human plasma, 120 min, listed as diltiazem), 89.3%; in series [1] (Rat plasma, 30 min), 86.3%; in series [1] (Rat plasma, 120 min), 45.4%.
The molecule `O=S(=O)(NCCNc1cc(-c2cn(-c3ccccc3)nc2-c2cccc(O)c2)ccn1)c1ccccc1` [Compound 1j, N-(2-((4-(3-(3-Hydroxyphenyl)-1-phenyl-1H-pyrazol-4-yl)pyridin-2-yl)amino)ethyl) benzenesulfonamide] gave a melting point of 100 to 102 °C.
As for `CCN(CC)CCOC(=O)c1ccc(N)cc1` [Procaine], the “Plasma stability, remaining unchanged” value in [1] (Human plasma, 30 min) was 1.2%; in series [1] (Human plasma, 30 min, listed as procaine) it was 1.2%; in [1] (Human plasma, 120 min) it was 0.2%; in [1] (Human plasma, 120 min, listed as procaine) it was 0.2%; in series [1] (Rat plasma, 30 min) it was 89.9%; in series [1] (Rat plasma, 120 min) it was 42.7%.
`COc1ccc(S(=O)(=O)NCCNc2cc(-c3cn(-c4ccccc4)nc3-c3cccc(OC)c3)ccn2)cc1` [Compound 1e, 4-Methoxy-N-(2-((4-(3-(3-methoxyphenyl)-1-phenyl-1H-pyrazol-4-yl)pyridin-2-yl)amino)ethyl)benzenesulfonamide] came in with a melting point of 144 to 146 °C.
For the molecule `CNC(=O)c1cc(Oc2ccc(NC(=O)Nc3ccc(Cl)c(C(F)(F)F)c3)cc2)ccn1` [Sorafenib, reference compound], the IC50 was 3160 nM in [2]; 8570 nM in series [3]; 2230 nM in [4]; 2110 nM in series [5]; 2350 nM in series [6]; 2150 nM in series [7]. For the same molecule, the IC50 in series [8] came to 2890 nM; in series [9], 2770 nM; in series [10], 2510 nM; in [11] it was 2510 nM; in [12], 2510 nM; in series [13], 1850 nM. Also, the IC50 came out at 2510 nM in [14], 1250 nM in [15] and 1990 nM in series [16].
As for `COc1cccc(-c2nn(-c3ccccc3)cc2-c2ccnc(NCCNS(=O)(=O)c3ccc(C)cc3)c2)c1` [Compound 1f, N-(2-((4-(3-(3-Methoxyphenyl)-1-phenyl-1H-pyrazol-4-yl)pyridin-2-yl)amino)ethyl)-4-methylbenzenesulfonamide], the melting point was in the range of 150 to 152 °C.
`O=S(=O)(NCCCNc1cc(-c2cn(-c3ccccc3)nc2-c2cccc(O)c2)ccn1)c1ccccc1` [Compound 2j, N-(3-((4-(3-(3-Hydroxyphenyl)-1-phenyl-1H-pyrazol-4-yl)pyridin-2-yl)amino)propyl) benzenesulfonamide] had a melting point of 154 to 156 °C.
The same measure, in the same setting: under `COc1cccc(-c2nn(-c3ccccc3)cc2-c2ccnc(NCCNS(=O)(=O)c3ccccc3)c2)c1` [Compound 1a, N-(2-((4-(3-(3-methoxyphenyl)-1-phenyl-1H-pyrazol-4-yl)pyridin-2-yl)amino)ethyl) benzenesulfonamide] stands 104 to 106 °C; under `COc1cccc(-c2nn(-c3ccccc3)cc2-c2ccnc(NCCCNS(=O)(=O)c3cccc4ccccc34)c2)c1` [Compound 2i, N-(3-((4-(3-(3-Methoxyphenyl)-1-phenyl-1H-pyrazol-4-yl)pyridin-2-yl)amino)propyl) naphthalene-1-sulfonamide], 134 to 136 °C.
On the same count and under the same terms, as for `Cc1ccc(S(=O)(=O)NCCCNc2cc(-c3cn(-c4ccccc4)nc3-c3cccc(O)c3)ccn2)cc1` [Compound 2n, N-(3-((4-(3-(3-Hydroxyphenyl)-1-phenyl-1H-pyrazol-4-yl)pyridin-2-yl)amino)propyl)-4-methylbenzenesulfonamide], the figure is 158 to 160 °C.
Same read-out and setting: as for `COc1cccc(-c2nn(-c3ccccc3)cc2-c2ccnc(NCCNS(=O)(=O)c3cccc4ccccc34)c2)c1` [Compound 1i, N-(2-((4-(3-(3-Methoxyphenyl)-1-phenyl-1H-pyrazol-4-yl)pyridin-2-yl)amino)ethyl)naphthalene-1-sulfonamide], the figure is 178 to 180 °C.
For the molecule `COc1ccc(S(=O)(=O)NCCCNc2cc(-c3cn(-c4ccccc4)nc3-c3cccc(OC)c3)ccn2)cc1` [Compound 2e, 4-Methoxy-N-(3-((4-(3-(3-methoxyphenyl)-1-phenyl-1H-pyrazol-4-yl)pyridin-2-yl)amino)propyl)benzenesulfonamide], the melting point lay in the range of 124 to 126 °C.
Regarding `O=S(=O)(NCCNc1cc(-c2cn(-c3ccccc3)nc2-c2cccc(O)c2)ccn1)c1cccc(F)c1` [Compound 1p, 3-Fluoro-N-(2-((4-(3-(3-hydroxyphenyl)-1-phenyl-1H-pyrazol-4-yl)pyridin-2-yl)amino)ethyl)benzenesulfonamide], the melting point fell in the range of 146 to 148 °C.
In the case of `COc1cccc(-c2nn(-c3ccccc3)cc2-c2ccnc(NCCCNS(=O)(=O)c3ccccc3)c2)c1` [Compound 2a, N-(3-((4-(3-(3-Methoxyphenyl)-1-phenyl-1H-pyrazol-4-yl)pyridin-2-yl)amino)propyl) benzenesulfonamide], the melting point was 119 to 120 °C.
